Data from publication PMC7459823, “Characterization of Five Novel Anti-MRSA Compounds Identified Using a Whole-Animal Caenorhabditis elegans/Galleria mellonella Sequential-Screening Approach” (Antibiotics, 2020).
Values after ≈ are worked out from the molar mass of the structure shown.

Experiments:
[1] = system: clinical S. aureus isolate BF4; test: Broth microdilution MIC, clinical S. aureus isolate BF4; type: cell-based; settings: Staphylococcus aureus; BF4; read-out: MIC
Experimental: (§1) In vitro antibacterial activities were determined using the broth microdilution method. Assays were performed as described in Clinical and Laboratory Standards Institute protocols in triplicate using cation-adjusted Muller–Hinton broth (Becton Dickinson and Company, Franklin Lakes, NJ, USA) in 96-well plates with a total assay volume of 100 µL. Two-fold serial dilutions of test compounds were prepared over the concentration range of 1–64 µg/mL. The bacterial concentration was adjusted to OD600 = 0.06. […] A 10 µL aliquot from each well in the MIC assays was plated onto Muller–Hinton agar (Becton Dickinson and Company, Franklin Lakes, NJ, USA) and incubated overnight at 37 °C. The lowest concentration of compound for which no growth was observed on agar plates was reported as the minimal bactericidal concentration (MBC).

[2] = system: Klebsiella pneumoniae; test: Broth microdilution MIC, Klebsiella pneumoniae; type: cell-based; settings: read-out: MIC
Experimental: as §1

[3] = system: clinical S. aureus isolate BF1; test: Broth microdilution MIC, clinical S. aureus isolate BF1; type: cell-based; settings: Staphylococcus aureus; BF1; read-out: MIC
Experimental: as §1

[4] = system: MRSA MW2; test: Time-to-kill assay; type: cell-based, Staphylococcus aureus; settings: MRSA MW2, compounds at 64 µg/mL, 4 hr; criteria MBC/MIC and 3 log10 CFU decrease
Source text: Time-to-kill assays were used to further probe bactericidal/bacteriostatic properties against MRSA MW2 (Figure 3). Antibacterial compounds are generally considered bactericidal, if the MBC is no more than four times higher than the MIC. Bactericidal activity is defined as greater than 3 log10 -fold decrease in colony forming units, which is equivalent to 99.9% killing of the inoculum. If the MBC is outside this range, compounds are bacteriostatic. According to these criteria, all five compounds were bacteriostatic.
Time-to-kill assays were performed as previously described. Briefly, overnight cultures of MRSA-MW2 were diluted in fresh Tryptic Soy Broth (TSB) to a density of 10^8 cells/mL and placed into 10 mL tubes (Becton Dickinson and Company, Franklin Lakes, NJ, USA). Test compounds dissolved in DMSO over the concentration range 4–64 µg/mL were added and the tubes incubated at 37 °C. At periodic intervals, aliquots from each tube were serially diluted with TSB and plated onto tryptic soy agar (TSA) (Becton Dickinson and Company, Franklin Lakes, NJ, USA). CFUs were enumerated after overnight incubation at 37 °C. Assays were carried out in triplicate.

MIC [1]: 2 mg/L (≈ 4.2 µM)
MIC [2]: > 64 mg/L
MIC [3]: 2 mg/L (≈ 4.2 µM)
Structure (SMILES): Cc1cc(I)ccc1Nc1c(C(=O)NOCC2CC2)cc(F)c(F)c1F [PD198306, N-(Cyclopropylmethoxy)-3,4,5-trifluoro-2-[(4-iodo-2-methylphenyl)amino]-benzamide]
bactericidal/bacteriostatic classification [4]: bacteriostatic
